For this assay, the system named is Trypanosoma brucei brucei. Put plainly: microbe, parasite or virus in culture. The conditions noted are these: Trypanosoma brucei, STIB 795. The assay is classed as functional, organism-based, STIB 795.
Description: DNDI: Inhibition of Human African Trypanosomiasis (HAT), STIB 795, in vitro
The molecule `CCN(CC)CCn1c2ccccc2c2nc3ccccc3nc21` registered an IC50 of over 10.4 µM. With `Cc1cccc(C(=N)NOC(=O)c2ccc3c(c2)OCO3)c1`, the IC50 is over 10.4 µM. The molecule `Oc1ccc(CN2CCC(Cc3ccccc3)CC2)c2cccnc12` showed an IC50 of over 10.4 µM. As for `Brc1ccc(C2Nc3cccc4cccc(c34)N2)o1`, the figure is over 10.4 µM; as for `Cn1c(SC2=CS(=O)(=O)c3ccccc32)nc2ccccc21`, over 10.4 µM; as for `COc1cc(C(=O)O/N=C(\N)c2ccncc2)cc(OC)c1OC`, over 10.4 µM. As for `CCOC(=O)C(=Cc1ccc(Br)cc1)C(=O)OCC`, the figure is over 10.4 µM; as for `C=CCc1c(C)nc(SC)nc1Nc1ccc(C(C)=O)cc1`, over 10.4 µM. Next, `CCC(=O)Nc1nc2ccccc2n1Cc1ccccc1C`: over 10.4 µM; `COc1cc(NS(=O)(=O)c2ccc(C)cc2)c2ncccc2c1`: over 10.4 µM; `N=C(Cc1cccc2ccccc12)NOC(=O)c1cccs1`: over 10.4 µM. Consider `COC(=O)c1sc(=S)n(-c2cc(F)ccc2F)c1N`, for which the IC50 was over 10.4 µM. With `N=C(NOC(=O)c1ccoc1)c1ccc(Br)cc1`, the IC50 was over 10.4 µM. Next, `N=C(NOC(=O)c1cccc(Br)c1)c1ccncc1`: over 10.4 µM; `N=C(NOC(=O)c1ccc(Cl)c(Cl)c1)c1ccccn1`: over 10.4 µM; `CCOc1ccc2c(C)nc(NC3=NC(C)=CC(C)(C)N3)nc2c1`: over 10.4 µM. In turn, `COc1nc(Nc2nc(O)c3ccccc3n2)nc2ccc(C)cc12` gave an IC50 of over 10.4 µM. As for `CC(C)N1C/C(=C/c2ccsc2)C(=O)/C(=C/c2ccsc2)C1`, the figure is over 10.4 µM; as for `N=C(NOC(=O)C12CC3CC(CC(C3)C1)C2)c1cccnc1`, over 10.4 µM; as for `N=C(N)Nc1nc(-c2ccccc2)c2cc(Cl)ccc2n1`, over 10.4 µM.

In turn, `CC(=O)c1cccc(Nc2cc(C)nc3c(C)cc(C)cc23)c1` registered an IC50 of over 10.4 µM. Molecule `CN(C)CCOC1c2ccccc2CCc2ccc3ccccc3c21` (stereo not given) registered an IC50 of over 10.4 µM.

`c1ccc(/C(=N\Nc2nc3ccccc3s2)c2ccccn2)cc1` returned an IC50 of over 10.4 µM. Molecule `COc1ccc(O)c(/C=N/NC(=O)c2cccc3ccccc23)c1` returned an IC50 of over 10.4 µM. As for `O=C1/C(=C2\NCC(c3ccccc3)O2)Sc2ccccc21` (stereo not given), the figure is over 10.4 µM; as for `S=C1N(c2ccccc2)c2ccccc2C12CCOCC2`, over 10.4 µM; as for `CN(C)CCCC1=Cc2ccccc2Sc2ccccc21`, over 10.4 µM. Next, `Fc1ccccc1Cn1c(C2CCCO2)nc2ccccc21` (stereo not given): over 10.4 µM; `O=c1c(-c2ccccc2)c(-c2ccccc2)[nH]c2ccccc12`: over 10.4 µM; `Oc1ccc(/C=N/N2CCN(c3ccccc3)CC2)cc1O`: over 10.4 µM. Next, `COc1ccc(/C(N)=N/OC(=O)c2ccc(C)c(C)c2)cc1`: over 10.4 µM. `CC(C)(C)c1ccc(C(=O)NNC(=O)c2cnccn2)cc1` came in with an IC50 of over 10.4 µM. For `O=c1c(Cl)c(Cl)cnn1C12CC3CC(CC(C3)C1)C2`, the IC50 is over 10.4 µM. As for `Cc1c(-c2noc(C(=O)NC(C)C)n2)oc2c(C)cccc12`, the IC50 is over 10.4 µM.

As for `CCOC(=O)c1c(C)[nH]c(=S)c(C#N)c1-c1ccncc1`, the IC50 is over 10.4 µM. Next, `c1ccc(Nc2n[n+](-c3ccccc3)nc3ccccc23)cc1`: over 10.4 µM; `CC(C)CCn1c(C(C)N2CCCCC2)nc2ccccc21` (stereo not given): over 10.4 µM. `CCC(=O)c1sc(Nc2ccc(F)c(Cl)c2)nc1N`: the IC50 is over 10.4 µM. As for `O=C(CCN1CCCCC1)Nc1ccc(C2CCCC2)cc1`, the figure is over 10.4 µM; as for `CCCN(CCC)CC(O)COc1ccc2ccccc2c1` (stereo not given), over 10.4 µM. As for `O=C1C(=O)/C(=C/c2ccccc2)CCC/C1=C/c1ccccc1`, the figure is over 10.4 µM.

`COC(=O)C1=C(C)NC(=O)/C1=C\c1cccc(OC)c1OC` gave an IC50 of over 10.4 µM. With `NCC(OCc1ccc(-c2ccccc2)cc1)c1ccccc1` (stereo not given), the IC50 is over 10.4 µM. Next, `Clc1ccc(Sc2ccc(/C=N/n3cnnc3)o2)cc1`: over 10.4 µM.

`Oc1ccccc1/C=N/Nc1nc2ccccc2n2nnnc12`: the IC50 is over 10.4 µM.

`Cc1cc(C)c2nc(C)cc(Nc3ccc(N(C)C)cc3)c2c1` displayed an IC50 of over 10.4 µM. `O=C(Nc1ccnc(Cl)c1)NC12CC3CC(CC(C3)C1)C2` had an IC50 of over 10.4 µM. Regarding `COc1ccc2c(C)c/c(=N/N=C\c3ccccc3O)[nH]c2c1`, the IC50 was over 10.4 µM.

Turning to `COc1nc(Nc2ccc(Cl)cc2)nc(NC(C)(C)C)n1`, the IC50 was over 10.4 µM. As for `O=C1C(=O)c2c(C(=O)c3cccs3)coc2-c2ccccc21`, the figure is over 10.4 µM; as for `CCOC(=O)Cc1csc(NC(=O)c2ccccc2F)n1`, over 10.4 µM; as for `Cc1cc(C(=O)N/N=C/c2c(O)ccc3ccccc23)c(C)o1`, over 10.4 µM. As for `Cc1ccn(CC(=O)N/N=C/c2c(O)ccc3ccccc23)n1`, the figure is over 10.4 µM; as for `C(=N\n1cnnc1)/c1cccc(OCCOc2ccccc2)c1`, over 10.4 µM.

`CCOC(=O)c1sc(=S)n(-c2ccccc2CC)c1N`: the IC50 is over 10.4 µM.

As to `O=C(N/N=C/c1ccc(O)c2ncccc12)c1ccc(F)cc1`, the IC50 was over 10.4 µM. Take `N#Cc1ccc(-c2csc(NNC(=O)c3ccco3)n2)cc1`: the IC50 was over 10.4 µM. Next, `c1ccc(-c2nnc(-c3ccccn3)nc2-c2ccccc2)cc1`: over 10.4 µM. As for `C=CC1=Nc2ccccc2C(c2ccccc2)(c2ccccc2)N1`, the figure is over 10.4 µM; as for `O=C(CN1C2=NCCN2c2ccccc21)c1ccc(Cl)cc1`, over 10.4 µM. Next, `COc1cc(/C=C/c2cc(C(F)(F)F)nc(=O)[nH]2)ccc1O`: over 10.4 µM; `COC(=O)c1ccccc1N/N=N/c1nc2ccccc2s1`: over 10.4 µM; `CCN(CC)c1ccc(/C=N\NC(=O)c2ccccn2)c(O)c1`: over 10.4 µM. In the case of `O=C1C=C(N2CCCCC2c2cccnc2)C2(CCCCC2)O1` (stereo not given), the IC50 is over 10.4 µM. In turn, `COCCN1CSC(=S)N(Cc2ccc(OC)cc2)C1` showed an IC50 of over 10.4 µM. As for `CN(C)CCCC1(C)Oc2ccccc2Sc2ccccc21` (stereo not given), the figure is over 10.4 µM; as for `CSc1cccc(C(=O)Nc2cc(F)c(F)cc2Cl)c1`, over 10.4 µM; as for `N#CC(c1ccc(Cl)cc1Cl)c1cnnc2ccccc12` (stereo not given), over 10.4 µM. `COc1ccc(-c2cc(-c3c(O)ccc4ccccc34)n[nH]2)cc1`: the IC50 was over 10.4 µM. As for `C1CCC(Nc2nc3nonc3nc2NC2CCCCC2)CC1`, the figure is over 10.4 µM; as for `Oc1ccc(/N=N/c2ccccc2C(F)(F)F)c2cccnc12`, over 10.4 µM. `CC(C)(C)c1ccc(CCC2OCC(CN3CCCC3)O2)cc1` (stereo not given): the IC50 was over 10.4 µM.

As to `COc1ccc(/C(N)=N/OC(=O)c2ccccc2F)cc1OC`, the IC50 was over 10.4 µM. The molecule `CCOc1ccc(C(=O)CC(c2ccccc2)C(C#N)C#N)cc1` (stereo not given) yielded an IC50 of over 10.4 µM. Next, `Cc1ccc2cc3c(nc2c1)-c1ccccc1/C3=N/NC(N)=S`: over 10.4 µM. Molecule `N#Cc1nc2c(c(N3CCNCC3)c1-c1ccccc1)CCCC2` gave an IC50 of over 10.4 µM.

Turning to `COc1ccccc1-c1nnc(Cc2ccc(F)cc2Cl)o1`, the IC50 was over 10.4 µM.

In the case of `CN(C)CC/C=C(\c1ccccc1)c1cccc(C(F)(F)F)c1`, the IC50 was over 10.4 µM. Next, `O=C(NCC1CCCO1)c1cnc2sc3c(n2c1=O)CCC3` (stereo not given): over 10.4 µM; `Cc1ccsc1C=NN1CCN(c2ccc(Cl)cc2)CC1`: over 10.4 µM; `Cc1ccc(N2CCN(c3ccc4nnc(C)n4n3)CC2)c(C)c1`: over 10.4 µM. Next, `Cc1ccc(O)c(/C=N/NC(=O)c2[nH]ncc2Br)c1`: over 10.4 µM; `Nc1cc(NC(=O)c2ccncc2)cc(Oc2ccc(F)cc2)c1`: over 10.4 µM. As for `NC(=S)N/N=C(/c1ccc(C(F)(F)F)cc1)c1ccccn1`, the figure is over 10.4 µM; as for `COCc1nc2ccccc2n1CCCCOc1cccc(C)c1`, over 10.4 µM; as for `O=C(/C(=C/c1cccnc1)c1nc2ccccc2[nH]1)c1ccccc1`, over 10.4 µM. Consider `COc1ccc2c(c1)SCc1ccccc1/C2=C\CCN(C)C`, for which the IC50 is over 10.4 µM.

`CCCCN(CCCC)CCNC(=O)Nc1ccc(Cl)cc1` came in with an IC50 of over 10.4 µM. For `Oc1ccc(Br)c2ccc(/C=C/c3ccccc3)nc12`, the IC50 is over 10.4 µM. As for `C=CCc1cccc(/C=N/NC(=O)c2cc(C(C)(C)C)n[nH]2)c1O`, the figure is over 10.4 µM; as for `Cc1c(-c2cc(Cl)cc3c2OC(C)(C)C3=O)ccc(N)c1C#N`, over 10.4 µM; as for `CCCCCOc1ccc(NC(=N)Nc2nc(C)cc(C)n2)cc1`, over 10.4 µM. As for `COc1ccc(-c2nc3c(=O)n(C)c(=O)nc-3n(C)n2)cc1OC`, the figure is over 10.4 µM; as for `Cc1nn(C(=N)N)c(C)c1C1c2ccccc2CCc2ccccc21`, over 10.4 µM; as for `Fc1cccc(Cl)c1COc1ccc(/C=N/n2cnnc2)cc1`, over 10.4 µM. As for `Clc1ncnc2c1C(c1ccccc1)c1c(Cl)ncnc1O2`, the figure is over 10.4 µM; as for `C/C(=N\Nc1nnc2c(n1)[nH]c1c(C)cccc12)c1ccccc1O`, over 10.4 µM. On to `CCCNc1nc(NC2CCCCC2)nc(NC2CCCCC2)n1`, for which the IC50 is over 10.4 µM. As for `Cc1ccc(Nc2nc3nonc3nc2NC(C)(C)C)cc1Cl`, the figure is over 10.4 µM; as for `Cc1ccc(S(=O)(=O)Nc2ccc(Cl)c3cccnc23)cc1`, over 10.4 µM. Molecule `Cc1cc(OCC(=O)NNc2ccccc2)c(C(C)C)cc1Cl` had an IC50 of over 10.4 µM.

Consider `CC(Nc1cccc2ccccc12)C(=O)N/N=C/c1cccc(O)c1` (stereo not given), for which the IC50 was over 10.4 µM. Molecule `COC(=O)c1cccc(Nc2nc(N)c(C(=O)CC(C)C)s2)c1` yielded an IC50 of over 10.4 µM. For `Nc1ccccc1S(=O)(=O)Nc1cccc2cccnc12`, the IC50 is over 10.4 µM. As for `NS(=O)(=O)c1ccc(N/C=C2\C(=O)Nc3ccccc32)cc1`, the figure is over 10.4 µM.

The molecule `CCCCC(CC)C(=O)Nc1ccc2ccc3cccnc3c2n1` (stereo not given) returned an IC50 of over 10.4 µM. Turning to `c1ccc(-c2cc(-c3ccccn3)nc(-c3ccccn3)c2)cc1`, the IC50 was over 10.4 µM. `c1ccc(CCCNc2ccnc3cc4ccccc4cc23)cc1` had an IC50 of over 10.4 µM.

Take `CC(Cc1ccccc1)NCCC1c2ccccc2-c2ccccc21` (stereo not given): the IC50 was over 10.4 µM.

Molecule `CN(C)CCCC1Sc2ccccc2Sc2ccccc21` (stereo not given) showed an IC50 of over 10.4 µM.

What is called IC50 is the concentration needed to halve the response being measured.
